Measurements from ChEMBL document CHEMBL3988442, “University of Dundee, Small-Polar-MMV Screening Library” (2021).
Where “and” joins values, the source holds several entries; their conditions need not be identical. Identical values can stand only once.

Experiments:
Histidine--tRNA ligase [1] = molecular target: T1, Histidine--tRNA ligase (Trypanosoma cruzi (strain CL Brener), UniProt Q4DA54); experiment: Trypanosoma cruzi histidyl tRNA synthetase (Tc-HisRS); format: functional
T1 sequence (Q4DA54 whole entry): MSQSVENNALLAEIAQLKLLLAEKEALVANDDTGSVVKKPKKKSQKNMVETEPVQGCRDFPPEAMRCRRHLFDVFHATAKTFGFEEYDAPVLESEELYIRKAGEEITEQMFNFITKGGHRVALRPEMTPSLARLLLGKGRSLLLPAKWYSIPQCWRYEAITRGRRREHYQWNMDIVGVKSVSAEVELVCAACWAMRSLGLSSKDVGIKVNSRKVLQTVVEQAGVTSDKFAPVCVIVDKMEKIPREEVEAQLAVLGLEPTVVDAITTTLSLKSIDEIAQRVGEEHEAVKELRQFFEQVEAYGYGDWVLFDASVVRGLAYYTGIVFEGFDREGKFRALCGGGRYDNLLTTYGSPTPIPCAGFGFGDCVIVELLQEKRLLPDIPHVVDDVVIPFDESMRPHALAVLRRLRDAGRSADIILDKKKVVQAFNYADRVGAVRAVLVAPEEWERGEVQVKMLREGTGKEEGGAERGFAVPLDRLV

Histidine--tRNA ligase [2] = molecular target: T2, Histidine--tRNA ligase (Leishmania infantum, UniProt A4I591); experiment: Leishmania infantum Histidine tRNA synthetase (LdHisRS); format: functional
T2 sequence (A4I591 whole entry): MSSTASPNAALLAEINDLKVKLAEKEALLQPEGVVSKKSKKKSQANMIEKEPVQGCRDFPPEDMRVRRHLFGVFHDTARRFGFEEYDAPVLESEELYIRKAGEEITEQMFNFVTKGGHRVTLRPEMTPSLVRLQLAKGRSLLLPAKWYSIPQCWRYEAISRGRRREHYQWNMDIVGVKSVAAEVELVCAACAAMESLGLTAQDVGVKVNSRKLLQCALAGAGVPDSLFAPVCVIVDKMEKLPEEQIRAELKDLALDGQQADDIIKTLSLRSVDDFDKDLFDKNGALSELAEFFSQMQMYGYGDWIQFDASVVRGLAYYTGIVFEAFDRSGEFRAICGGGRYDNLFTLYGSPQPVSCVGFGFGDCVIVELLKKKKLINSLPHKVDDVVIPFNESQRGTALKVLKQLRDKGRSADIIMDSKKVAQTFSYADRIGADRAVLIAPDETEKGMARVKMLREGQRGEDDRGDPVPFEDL

[3] = molecular target: T3, Coenzyme A biosynthesis bifunctional protein CoaBC (Mycobacterium tuberculosis (strain ATCC 25618 / H37Rv), UniProt P9WNZ1); experiment: Biomol Green assay for MtCoaBC inhibitor, OD650 read; format: functional
T3 sequence (P9WNZ1 whole entry): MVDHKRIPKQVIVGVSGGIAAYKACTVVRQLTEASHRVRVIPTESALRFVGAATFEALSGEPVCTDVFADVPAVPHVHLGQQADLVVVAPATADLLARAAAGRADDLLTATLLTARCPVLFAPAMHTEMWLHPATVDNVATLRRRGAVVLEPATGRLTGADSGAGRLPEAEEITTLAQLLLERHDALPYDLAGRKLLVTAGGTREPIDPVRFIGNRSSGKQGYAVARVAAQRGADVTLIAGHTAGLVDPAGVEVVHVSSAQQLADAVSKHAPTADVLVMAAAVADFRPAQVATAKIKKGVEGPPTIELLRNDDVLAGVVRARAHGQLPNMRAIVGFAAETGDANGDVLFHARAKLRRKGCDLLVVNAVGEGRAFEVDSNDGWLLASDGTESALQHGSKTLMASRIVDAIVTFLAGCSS

[4] = molecular target: Sialic acid-binding Ig-like lectin 9 (Homo sapiens, UniProt Q9Y336); experiment: Hs-Siglec9 ALPHAscreen SOP 20170721
[5] = molecular target: Chromo domain-containing protein 1 (Saccharomyces cerevisiae (strain ATCC 204508 / S288c) (Baker's yeast), UniProt P32657); experiment: ScCHD-1 Enzyme Inhibition Assay; format: functional
ClpP1P2 = ClpP1P2 (Mycobacterium tuberculosis (strain ATCC 25618 / H37Rv), UniProt P9WPC3+P9WPC5); experiment: in vitro assay to detect presence of AMC directly proportional to the activity of ClpP1P2. GHDDI collaboration.; format: functional
[6] = microbe, parasite or virus in culture; conditions: Mycobacterium tuberculosis, 96 h, read-out: pIC50 (converted)
[7] = microbe, parasite or virus in culture; conditions: Mycobacterium tuberculosis, 72 h, read-out: pIC50 (converted)

Chain of Chromo domain-containing protein 1 (P32657 whole entry, the tested form may be a part): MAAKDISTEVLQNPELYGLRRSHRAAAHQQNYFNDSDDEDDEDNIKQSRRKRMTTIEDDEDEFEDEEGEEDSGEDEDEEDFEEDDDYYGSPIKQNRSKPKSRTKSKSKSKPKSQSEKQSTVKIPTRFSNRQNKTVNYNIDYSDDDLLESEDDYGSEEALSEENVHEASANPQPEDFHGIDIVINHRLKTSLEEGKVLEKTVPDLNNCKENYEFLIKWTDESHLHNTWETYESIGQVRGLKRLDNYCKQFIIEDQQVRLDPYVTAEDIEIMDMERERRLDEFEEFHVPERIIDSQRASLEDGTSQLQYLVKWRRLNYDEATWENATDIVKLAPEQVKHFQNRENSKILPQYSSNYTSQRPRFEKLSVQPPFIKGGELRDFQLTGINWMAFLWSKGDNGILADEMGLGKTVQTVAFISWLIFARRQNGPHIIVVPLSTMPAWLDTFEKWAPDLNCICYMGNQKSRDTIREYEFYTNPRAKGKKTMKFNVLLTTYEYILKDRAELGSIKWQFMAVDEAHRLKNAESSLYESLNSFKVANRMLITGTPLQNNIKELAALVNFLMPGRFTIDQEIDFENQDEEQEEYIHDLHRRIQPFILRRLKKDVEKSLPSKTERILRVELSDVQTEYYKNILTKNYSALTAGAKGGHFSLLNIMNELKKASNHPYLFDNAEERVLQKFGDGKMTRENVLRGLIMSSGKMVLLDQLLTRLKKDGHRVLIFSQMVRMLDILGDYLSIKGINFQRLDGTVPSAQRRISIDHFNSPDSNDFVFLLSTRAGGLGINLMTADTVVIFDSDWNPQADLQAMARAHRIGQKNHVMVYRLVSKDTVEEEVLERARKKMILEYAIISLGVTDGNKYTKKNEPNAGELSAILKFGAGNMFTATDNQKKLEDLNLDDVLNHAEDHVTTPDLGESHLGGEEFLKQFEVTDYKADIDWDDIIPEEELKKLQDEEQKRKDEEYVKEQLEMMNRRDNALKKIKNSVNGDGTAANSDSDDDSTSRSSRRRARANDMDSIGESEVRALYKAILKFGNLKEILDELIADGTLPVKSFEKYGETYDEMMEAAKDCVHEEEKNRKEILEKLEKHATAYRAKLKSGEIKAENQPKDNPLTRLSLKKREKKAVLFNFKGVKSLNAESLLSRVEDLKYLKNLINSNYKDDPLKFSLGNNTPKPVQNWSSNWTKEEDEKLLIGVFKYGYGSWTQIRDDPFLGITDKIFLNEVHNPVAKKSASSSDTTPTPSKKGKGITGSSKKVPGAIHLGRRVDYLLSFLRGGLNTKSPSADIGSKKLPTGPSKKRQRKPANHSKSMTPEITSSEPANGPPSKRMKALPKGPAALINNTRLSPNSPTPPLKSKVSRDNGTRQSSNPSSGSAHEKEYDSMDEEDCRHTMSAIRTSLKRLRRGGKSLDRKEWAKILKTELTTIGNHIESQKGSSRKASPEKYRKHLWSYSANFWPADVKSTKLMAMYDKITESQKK
Chain of ClpP1P2 (P9WPC5 whole entry): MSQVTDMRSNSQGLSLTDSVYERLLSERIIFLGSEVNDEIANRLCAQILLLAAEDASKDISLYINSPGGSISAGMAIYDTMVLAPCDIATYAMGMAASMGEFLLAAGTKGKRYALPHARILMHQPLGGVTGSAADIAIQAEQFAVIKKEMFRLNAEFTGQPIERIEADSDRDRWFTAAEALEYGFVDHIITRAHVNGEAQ
Chain of ClpP1P2 (P9WPC3 whole entry): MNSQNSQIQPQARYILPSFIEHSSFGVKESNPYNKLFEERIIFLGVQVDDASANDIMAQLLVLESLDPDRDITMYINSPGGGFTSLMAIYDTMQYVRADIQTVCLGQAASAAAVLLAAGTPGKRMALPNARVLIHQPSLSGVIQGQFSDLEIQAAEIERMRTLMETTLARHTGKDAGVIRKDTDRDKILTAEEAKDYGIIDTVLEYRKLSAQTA
Chain of Sialic acid-binding Ig-like lectin 9 (Q9Y336 whole entry, the tested form may be a part): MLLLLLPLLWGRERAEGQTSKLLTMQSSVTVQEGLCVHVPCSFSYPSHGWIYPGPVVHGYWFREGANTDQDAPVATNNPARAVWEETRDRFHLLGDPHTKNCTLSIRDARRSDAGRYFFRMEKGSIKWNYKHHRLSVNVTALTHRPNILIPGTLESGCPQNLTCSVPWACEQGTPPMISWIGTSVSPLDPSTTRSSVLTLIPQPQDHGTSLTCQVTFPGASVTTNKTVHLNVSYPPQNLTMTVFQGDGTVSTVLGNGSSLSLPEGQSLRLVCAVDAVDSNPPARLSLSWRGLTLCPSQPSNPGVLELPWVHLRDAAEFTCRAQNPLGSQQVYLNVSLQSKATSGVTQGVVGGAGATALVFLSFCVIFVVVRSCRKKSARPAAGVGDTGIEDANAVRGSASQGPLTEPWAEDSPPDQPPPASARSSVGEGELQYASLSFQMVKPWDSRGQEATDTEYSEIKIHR

CN1CCN2CCN(Cc3cnc(NCc4ccccc4)nc3)CC2C1 (configuration not stated)
IC50 (Histidine--tRNA ligase [1]): > 100 µM

Cc1nc(C)n(CC2CCCN2Cc2nc(N)c3ccccc3n2)n1 (configuration not stated)
IC50 (Histidine--tRNA ligase [1]): > 100 µM

O=C(O)c1ccccc1-c1ccc(CN2CC(c3ccncn3)C2)o1
IC50 (Histidine--tRNA ligase [1]): 52.3 µM and 57.8 µM

Cc1nn(-c2ccccc2Cl)c(C)c1CCC(=O)NCCS(C)(=O)=O
IC50 (Histidine--tRNA ligase [1]): > 100 µM

CCN(CC)CCNC(=O)CCc1c(C)nn(-c2ccc(Cl)cc2)c1C
IC50 (Histidine--tRNA ligase [1]): > 100 µM

CC(C)n1ccnc1CNC(=O)c1cccc(CCC(C)(C)O)c1
IC50 (Histidine--tRNA ligase [1]): > 100 µM

CN(Cc1nc(N)c2ccccc2n1)CC1CCCN1c1cccnn1 (configuration not stated)
IC50 (Histidine--tRNA ligase [1]): > 100 µM

NCC1Cc2cccc(-c3nccc(N4CCC(O)CC4)n3)c2O1 (configuration not stated)
IC50 (Histidine--tRNA ligase [1]): > 100 µM

Cc1ccc(N2CC3(CCN(c4nccs4)C3)C2)nn1
IC50 (Histidine--tRNA ligase [1]): > 100 µM

O=C1N(CC2CC2)CCC12CCN(c1ncccn1)CC2
IC50 (Histidine--tRNA ligase [1]): > 100 µM

Cc1cc(=O)n(C)cc1NC(=O)Cc1ccc(C(F)(F)F)cc1
IC50 (Histidine--tRNA ligase [1]): 5.22 µM and 5.49 µM | IC50 (Histidine--tRNA ligase [2]): 6.69 µM and 5.43 µM

O=C(O)c1cncc(Cc2ccc(F)cc2)c1
IC50 (Histidine--tRNA ligase [1]): > 100 µM

O=C(O)CNc1cc(-c2nccnc2N2CCCC2)c2cc[nH]c2n1
IC50 (Histidine--tRNA ligase [1]): 38.4 µM and 34.5 µM

O=C(O)c1ccc(Cc2cccc(F)c2)nc1
IC50 (Histidine--tRNA ligase [1]): > 100 µM

CCN(CC)CCNC(=O)CCc1c(C)nn(-c2cccc(Cl)c2)c1C
IC50 (Histidine--tRNA ligase [1]): > 100 µM

Cn1nc(Cn2ccnc2)c2c1CN(c1nccs1)C2
IC50 (Histidine--tRNA ligase [1]): 88.3 µM and 86.2 µM | IC50 (Histidine--tRNA ligase [2]): 20.5 µM and 14.5 µM

O=C1CC(c2ccco2)c2sc(C(=O)O)c(-c3ccccc3)c2N1 (configuration not stated)
IC50 [3]: > 30.2 µM | IC50 [4]: > 30.2 µM | IC50 (Histidine--tRNA ligase [2]): 17.3 µM and 12.6 µM | IC50 [5]: 20.8 µM and 21.6 µM | IC50 (ClpP1P2): > 100 µM

CCCn1cc(NC(=O)c2ccc(NC(=O)NC3CC3)cc2)ccc1=O
IC50 (Histidine--tRNA ligase [1]): 4.75 µM and 4.19 µM | IC50 (Histidine--tRNA ligase [2]): 5.84 µM and 7.08 µM

CNC1CCN(C2CCN(c3ccc(-c4ccco4)cc3)CC2)CC1
IC50 (Histidine--tRNA ligase [1]): 65.7 µM and 43.8 µM | IC50 [6]: > 50.1 µM | IC50 [7]: 24.6 µM

Cc1ccnc(C2CN(Cc3ccc(-c4ccccc4C(=O)O)o3)C2)n1
IC50 (Histidine--tRNA ligase [1]): 48.1 µM and 40.7 µM

CCN1CCC2(CCN(c3ncccn3)CC2)C1=O
IC50 (Histidine--tRNA ligase [1]): > 100 µM

Cc1nc(CNC2CCCN(c3cccnn3)C2)no1 (configuration not stated)
IC50 (Histidine--tRNA ligase [1]): > 100 µM

Cc1ccc(N2CCCC3(COCCN(c4cnccn4)C3)C2)nn1 (configuration not stated)
IC50 (Histidine--tRNA ligase [1]): > 100 µM

Cc1nc(C)n(CC2CCCN2Cc2nc3ccccc3o2)n1 (configuration not stated)
IC50 (Histidine--tRNA ligase [1]): > 100 µM

COc1cccn(CC(=O)N2CCCC3(CCOCC3)C2)c1=O
IC50 (Histidine--tRNA ligase [1]): 5.31 µM and 6.94 µM | IC50 (Histidine--tRNA ligase [2]): > 100 µM

Cc1cc(CNC2CCCN(c3cccnn3)C2)no1 (configuration not stated)
IC50 (Histidine--tRNA ligase [1]): > 100 µM

CCN(CC)CCNC(=O)CCc1c(C)nn(-c2ccccc2Cl)c1C
IC50 (Histidine--tRNA ligase [1]): > 100 µM

CC1CCN(c2ccc(C(=O)N3CCCC3c3nncn3C)cn2)CC1 (configuration not stated)
IC50 (Histidine--tRNA ligase [1]): > 100 µM

CNc1cc(-c2ccc(COCCN)cc2)c2cc[nH]c2n1
IC50 (Histidine--tRNA ligase [1]): 38.8 µM and 97 µM | IC50 (ClpP1P2): > 100 µM

CC(C)(O)CCc1cccc(C(=O)NCc2nccs2)c1
IC50 (Histidine--tRNA ligase [1]): > 100 µM

CC(C)(O)CCc1cccc(C(=O)NCc2cnn3cccnc23)c1
IC50 (Histidine--tRNA ligase [1]): > 100 µM

c1cnnc(N2CCCC(NCc3nc(-c4ccsc4)no3)C2)c1 (configuration not stated)
IC50 (Histidine--tRNA ligase [1]): > 100 µM

Cc1noc(C)c1CN(C)CC1CCCN1c1cccnn1 (configuration not stated)
IC50 (Histidine--tRNA ligase [1]): > 100 µM

Cc1nc(CN(C)CC2CCCN2c2cccnn2)oc1C (configuration not stated)
IC50 (Histidine--tRNA ligase [1]): > 100 µM

c1ccc(CNc2ncc(CN3CCCN4CCC[C@H]4C3)cn2)cc1
IC50 (Histidine--tRNA ligase [1]): 39.6 µM and 38.3 µM

Cn1cc(NC(=O)N2CCCC2c2cccnc2)ccc1=O (configuration not stated)
IC50 (Histidine--tRNA ligase [1]): 5.39 µM and 6.42 µM | IC50 (Histidine--tRNA ligase [2]): 5.84 µM and 5.74 µM

Cc1nccc(C2CN(Cc3ccc(-c4ccccc4C(=O)O)o3)C2)n1
IC50 (Histidine--tRNA ligase [1]): > 100 µM

Fc1ccc(F)c(CN2CCC(c3cnccn3)CC2)c1
IC50 (Histidine--tRNA ligase [1]): > 100 µM

CC(C)(C)c1nc(CNC2CCCN(c3cccnn3)C2)no1 (configuration not stated)
IC50 (Histidine--tRNA ligase [1]): 39.6 µM and 34.1 µM | IC50 [6]: > 50.1 µM | IC50 [7]: > 50.1 µM

Cc1nc2ccccc2nc1CN(C)C1CCCN(c2cccnn2)C1 (configuration not stated)
IC50 (Histidine--tRNA ligase [1]): > 100 µM

Cc1ccc(N2CCCC3(COCCN(c4ncccn4)C3)C2)nn1 (configuration not stated)
IC50 (Histidine--tRNA ligase [1]): > 100 µM

COC(=O)c1ccc(CNC(=O)Nc2ccc(=O)n(C)c2)cc1
IC50 (Histidine--tRNA ligase [1]): 3.6 µM and 3.34 µM | IC50 (Histidine--tRNA ligase [2]): 1.41 µM and 1.19 µM and 3.2 µM and 2.68 µM
